Test results from patent US20070281947A1, “Diarylmethylpiperazines As Prophylactic Or Therapeutic Agents For Viral Myocarditis” (priority 2002, published 2007).
Marks after values point to notes of the source that are not given here.

How the values were obtained:
Type in all cases: in vivo
[1] = tested on: EMC (encephalomyocarditis) virus; assay: Effect on survival rate in a cardiac insufficiency model induced by EMC viral myocarditis in mice; conditions: for Survival rate (day 14): DBA/2 mice, EMC virus 1 pfu/mouse i.p., n = 10, control 10%
Procedure: A comparative study was conducted on the effect of cetirizine on survival rate in a cardiac insufficiency model induced by EMC (encephalomyocarditis) viral myocarditis in mice.
28-day-old, male DBA/2 mice were divided into three groups, and EMC virus that causes myocarditis was inoculated intraperitoneally to all groups at 1 pfu/mouse (0.1 ml as phosphate-buffered saline (PBS)) (day 0)(pfu means plaque forming unit). The EMC virus used here was acquired from ATCC (American Type Culture Collection, Manassas, Va., U.S.A.), and said EMC virus was used after diluting with PBS.
Following inoculation, a control group given only distilled water to serve as a control (n=10), a cetirizine low dose group to which cetirizine dissolved in distilled water was administered at a dose of 1 mg/kg/day (n=10), and a cetirizine high dose group to which cetirizine dissolved in distilled water was administered at 10 mg/kg/day (n=10), were forcibly fed once a day using a cannula (Wakenyaku Co., Ltd.) for 14 consecutive days.
The survival rates of the above three groups after 14 days were compared according to the Kaplan-Meier method (documents such as StatView, SAS Institute Inc., Cary, N.C., U.S.A. 1988 can be referred to for further details regarding this Kaplan-Meier method).
Data are obtained by analyzing the results obtained above according to the Kaplan-Meier method.

[2] = tested on: EMC virus; assay: Effect on histopathological changes in heart muscle in a cardiac insufficiency model induced by EMC viral myocarditis in mice; conditions: for Heart weight (g) (day 5) / Heart weight/body weight ratio (day 5): DBA/2 mice; for Heart weight (g) (day 5): EMC virus 1 pfu/mouse i.p.; for Heart weight/body weight ratio (day 5): EMC virus
Procedure: A comparative study was conducted on the effect of cetirizine on histopathological changes in heart muscle in a cardiac insufficiency model induced by EMC viral myocarditis in mice.
28-day-old, male DBA/2 mice were divided into three groups, and EMC virus was inoculated intraperitoneally to all groups at 1 pfu/mouse (day 0) in the same manner as Test Example 1.
(§1) Following inoculation, similar to Example 1, a control group given only distilled water to serve as a control (n=7), a cetirizine low dose group to which cetirizine was administered at a dose of 1 mg/kg/day (n=10), and a cetirizine high dose group to which cetirizine was administered at 10 mg/kg/day (n=7), were forcibly fed once a day using a cannula in the same manner as Test Example 1 for 5 consecutive days.
After five days, the hearts of the animals were removed, stained with hematoxylin-eosin stain after fixing with formalin, and scored for the two parameters of heart muscle cellular necrosis and inflammatory cellular invasion in the manner described below (documents such as Circulation 1999; 100; 1823-1829 can be referred to for further details regarding this formalin fixation, hematoxylin-eosin staining and scoring). The scores for heart muscle cellular necrosis and inflammatory cellular invasion were evaluated independently by two observers and then averaged. Statistical analysis was performed using the one way analysis of variance (ANOVA) and Fisher's protected least significant difference test (documents such as StatVien, SAS Institute Inc., Cary, N.C., U.S.A., 1998 can be referred to for further details regarding these statistical analysis methods).
1+: Lesions in 25% or less of heart
2+: Lesions in more than 25% to 50% of heart
3+: Lesions in more than 50% to 75% of heart
4+: Lesions in more than 75% to 100% of heart
Data consisting of heart weight, body weight, heart weight/body weight ratio, heart muscle cellular necrosis and inflammatory cellular invasion measured in accordance with that described above is summarized in Table 1 below. Furthermore, the previously described survival rate data and data relating to heart muscle interferon production to be described later are also shown in Table 1.

[3] = tested on: EMC virus; assay: Effect on intramyocardial cytokine production (ELISA) in a cardiac insufficiency model induced by EMC viral myocarditis in mice
Procedure: A comparative study was conducted on the effect of cetirizine on cytokine production within heart muscle in a cardiac insufficiency model induced by EMC viral myocarditis in mice.
28-day-old, male DBA/2 mice were divided into three groups, and EMC virus was inoculated intraperitoneally to all groups at 1 pfu/mouse (day 0) in the same manner as Example 1.
as §1, with “(n=10),” for “(n=7),”, “7” for “5”, “days. […]” for “days.”
The protein concentration of each cytokine was measured by ELISA using a commercially available kit (Circulation, 100: 1102-1108, 1999). […]
The total protein concentration of each supernatant was measured by the bicinchoninic acid (BCA) method followed by calculation of the ratio of cytokine concentration to total protein concentration (J. Am. Coll. Cardiol., 33: 1400-1407, 1999). Each cytokine protein concentration was expressed as pg/mg of total protein or ng/mg of total protein. […]

[4] = 1 mg/kg/day oral, 5 days, n = 10, mean ± SD
[5] = 10 mg/kg/day oral, 5 days, n = 7, mean ± SD
[6] = score 0 to 4+ (share of heart with lesions), two observers averaged, 1 mg/kg/day oral, 5 days, n = 10, mean ± SD

O=C(O)COCCN1CCN(C(c2ccccc2)c2ccc(Cl)cc2)CC1 (racemic) [Cetirizine, (±)-[2-[4-[(4-chlorophenyl)phenylmethyl]-1-piperazinyl]ethoxy]acetic acid]
Effect on survival rate (in words) ([1]; 1 and 10 mg/kg/day, 14 days, Kaplan-Meier, p<0.05): improved concentration-dependently
Survival rate (day 14) ([1]; 1 mg/kg/day oral, 14 days, 1 mg/kg/day): 40% (4/10)
Survival rate (day 14) ([1]; 1 mg/kg/day oral, 14 days, listed as cetirizine, 1 mg/kg/day): 40%
Survival rate (day 14) ([1]; 10 mg/kg/day oral, 14 days, p < 0.05 vs. control, 10 mg/kg/day): 50% (5/10)*
Survival rate (day 14) ([1]; 10 mg/kg/day oral, 14 days, p < 0.05 vs. control, listed as cetirizine, 10 mg/kg/day): 50%
Overall efficacy against EMC viral infection / viral myocarditis (in words) ([1]; summary of Examples 1 and 2: improved mortality rate of mice and viral myocarditis): effective against viral infection
Histopathological changes of the heart (in words) ([2]; 1 and 10 mg/kg/day, day 5, dose-dependently): trend of diminished inflammatory cell invasion and necrosis
Heart weight (g) (day 5) [2, 4]: 0.07 ± 0.008 g
Heart weight (g) (day 5) [2, 5]: 0.60 ± 0.006 g
Heart weight/body weight ratio (day 5) [2, 4]: 5.4 ± 1.1
Heart weight/body weight ratio (day 5) [2, 5]: 5.1 ± 0.8
Heart muscle cellular necrosis (day 5) [2, 6]: 1.8 ± 1.0
Inflammatory cellular invasion (day 5) [2, 6]: 2.3 ± 0.8
Intramyocardial IFN-γ (in words) ([3]; 7 days after virus inoculation, 1 and 10 mg/kg/day): concentration-dependent increase
Heart muscle interferon-γ (day 7) ([3]; ELISA of ventricle homogenate, relative to total protein, 1 mg/kg/day oral, 7 days, n = 10, mean ± SD, p < 0.05 vs. control): 2.2 ± 1.0
